According to US20080081823A1, “PIPECOLIC ACID-CONTAINING ANTIDIABETIC COMPOSITIONS” (Ajinomoto Co., Inc., priority 2006, published 2008):

Tests used:
[1] = system: normal rats; experiment: Oral glucose tolerance test in normal rats provided with pipecolic acid feed for 4 weeks; type: in vivo, Male SD rats; details: normal SD rats
Description: (a) It was examined whether the increase of the blood glucose after oral injection of glucose to normal rats could be inhibited by providing them with D,L pipecolic acid for 4 weeks.
(b) Male SD rats of 9 weeks old were used to start the experiment.
(c) 24 normal rats were divided into 3 groups (each group consisting of 8 rats) so that their fasting blood glucose and body weights became the same. Feeds adding 0, 0.2 or 0.4% D,L pipecolic acid were provided to each group for 4 weeks. Then, they were fasted for 17 hours, and 10% glucose solution was orally administered to them in its provided amount of 2 g/kg of body weight. At 0, 15, 30, 60, and 120 minutes after the administration, the blood glucose level and blood insulin concentration were measured.
(§1) (b) Preparation of feeds: D,L pipecolic acid (produced by Aldrich) was mixed in small portions with a commercial feed (CRF-1, produced by Oriental Yeast Co., Ltd.) and further mixed together for 5 minutes by using a universal mixer (produced by Dalton Corporation).
(c) Farming rats: 24 (3 experimental sections×8) male SD rats of 7 weeks old were purchased from Charles River Laboratories Japan, Inc. and each was separately farmed in an animal room in a light-dark cycle of 12 hours (7:00 to 19:00) at room temperature of 25° C. After habituation for two weeks, they were divided into 3 groups based on their body weights and fasting blood glucoses, and then the above feeds were provided for 4 weeks. Every Mondays, Wednesdays and Fridays during the period, their body weights and amounts of food ingested were measured, and the feeds were added. 4 weeks later, the oral glucose tolerance test was conducted.
(d) Oral glucose tolerance test: Fasting was started at 17:00 of the day before the test. At 10:00 of the test day, 10% glucose solution was orally administered to the rats in its provided amount of 2 g/kg of body weight. 0, 15, 30, 60, and 120 minutes after the administration, their blood was collected and their blood glucose levels and blood insulin concentrations were measured. The blood glucose levels were promptly measured after the blood collection by using a biochemical auto-analyzer for animals (Fuji DriChem 5500, produced by Fuji Photo Film Co., Ltd.). Further, the collected blood was centrifuged with a centrifuge (himac CF15D, produced by IlitachiKoki Co., Ltd) to take out the blood plasma, and the blood insulin concentrations were measured by using an insulin measurement kit (produced by Morinaga Institute of Biochemical Science, Inc.). FIG. 1A and FIG. 1B indicate the blood glucose transitions and the area under the blood glucose concentration time curve; and FIG. 1C indicates transitions of the blood insulin concentration.

[2] = system: obese model rats; experiment: Oral glucose tolerance test in obese model rats (high-fat diets) provided with pipecolic acid for 4 weeks; type: in vivo, Male SD rats; details: 0.2 or 0.4% added to high-fat diets for 4 weeks
Description: (a) It is reported that obese model rats produced by giving high-fat diets express insulin resistance and develop hyperinsulinemia. It was examined whether the increase of the blood glucose and blood insulin concentration after oral injection of glucose to these obese model rats could be inhibited by providing them with D,L pipecolic acid for 4 weeks.
(b) Male SD rats of 6 weeks old were used to start the experiment.
(c) 48 rats were divided into 2 groups so that their fasting blood glucoses and body weights became the same. Normal diets or high-fat diets were given to them for 3 weeks (model production period). […] 0, 15, 30, 60, and 120 minutes after the administration, their blood glucose levels and blood insulin concentrations were measured. […]
(d) Farming rats: 48 (6 experimental sections×8) male SD rats of 5 weeks old were purchased from Charles River Laboratories Japan, Inc. and each was separately farmed in an animal room in a light-dark cycle of 12 hours (7:00 to 19:00) at room temperature of 25° C. […] Every Mondays, Wednesdays and Fridays during all periods starting from the model production period to the end of the test period, their body weights and amounts of food ingested were measured, and the feeds were added. […]

[3] = system: model mice with Type II diabetes; experiment: Oral glucose tolerance test in model mice with Type II diabetes; type: in vivo, Male KK-Ay mice; details: KK-Ay mice; for increase of blood glucose in the oral glucose tolerance test: feed adding 0.4%
Description: (a) It was examined whether D,L pipecolic acid has an effect of improving the pathology of model mice with Type II diabetes.
(b) Male KK-Ay mice, which are the model mice with Type II diabetes, were used to start the experiment.
(c) 24 KK-Ay mice were divided into 3 groups based on their body weights, and the blood glucose levels and transitions of the blood insulin concentrations when injected glucose. Feeds adding 0, 0.4 or 0.8% D,L pipecolic acid were provided to each group for 10 weeks. At the second and eighth weeks after starting the test, their blood glucose levels and blood insulin concentrations after oral injection of glucose were measured. At the ninth week, the insulin tolerance test was conducted, and at the tenth week, autopsy was conducted to the samples to measure weights of epididymal fats and perinephric fats. […]
(§2) (c) Farming mice: 24 male KK-Ay mice of 5 weeks old were purchased from Clea Japan, Inc. and each was separately farmed in an animal room in a light-dark cycle of 12 hours (7:00 to 19:00) at room temperature of 25° C. Then, KK-Ay mice were divided into 3 groups based on their blood glucose levels and blood insulin concentrations measured when giving glucose. […] At the second and eighth weeks, the oral glucose tolerance test was conducted, and their blood glucoses and blood insulin concentrations after oral injection of glucose were measured. […] Then, at the tenth week, autopsy was conducted to the samples, and weights of epididymal fats and perinephric fats were measured to see effects of pipecolic acid on weights of visceral fats.
(d) Oral glucose tolerance test: Fasting was started at 20:00 of the day before the test. […] 0, 30, 60, 120, 180, and 240 minutes after the administration, their blood was collected and their blood glucose levels and blood insulin concentrations were measured. The blood glucose levels were promptly measured after the blood collection by using a biochemical auto-analyzer for animals (Fuji DriChem 5500, produced by Fuji Photo Film Co., Ltd.). […]

[4] = system: model mice with Type II diabetes; experiment: Insulin tolerance test in model mice with Type II diabetes; type: in vivo, Male KK-Ay mice; details: KK-Ay mice, feed adding 0.8%, ninth week, insulin 0.5 U/kg subcutaneous, compared with additive-free group
Experimental: (§3) (c) 24 KK-Ay mice were divided into 3 groups based on their body weights, and the blood glucose levels and transitions of the blood insulin concentrations when injected glucose. Feeds adding 0, 0.4 or 0.8% D,L pipecolic acid were provided to each group for 10 weeks. At the second and eighth weeks after starting the test, their blood glucose levels and blood insulin concentrations after oral injection of glucose were measured. At the ninth week, the insulin tolerance test was conducted, and at the tenth week, autopsy was conducted to the samples to measure weights of epididymal fats and perinephric fats.
as §2, with “fats. […]” for “fats.”

[5] = system: model mice with Type II diabetes; experiment: Autopsy: weights of epididymal fats and perinephric fats in model mice with Type II diabetes; type: in vivo, Male KK-Ay mice; details: KK-Ay mice, feed adding 0.8%, autopsy at tenth week
Experimental: as §3
as §2, with “fats. […]” for “fats.”

[6] = system: model mice with Type II diabetes; experiment: Measurement of lipids in the blood of model mice with Type II diabetes; type: in vivo, Male KK-Ay mice; details: KK-Ay mice, feed adding 1.6% for 5 weeks, fasting, average value
Experimental: (§4) (a) It was examined whether D,L pipecolic acid has an effect on blood and liver lipids of model mice with Type II diabetes.
(§5) (b) Male KK-Ay mice of 6 weeks old were used to start the experiment.
(c) 16 KK-Ay mice were divided into 2 groups based on their body weights. Feeds wherein 0 or 1.6% D,L pipecolic acid was added were provided to each group for 5 weeks. At the fifth week, they were fasted, and their blood was collected and their livers were extracted to measure their fasting blood triglyceride, fasting blood total cholesterol, fasting free fatty acids in the blood, total lipids in the liver, liver triglyceride and liver total cholesterol. […]
(c) Farming mice: 16 (2 experimental sections×8) male KK-Ay mice of 4 weeks old were purchased from Clea Japan, Inc. and each was separately farmed in an animal room in a light-dark cycle of 12 hours (7:00 to 19:00) at room temperature of 25° C. […] Every Mondays, Wednesdays and Fridays during the period, their body weights and amounts of food ingested were measured, and the feeds were added. […] The fasting blood triglyceride, fasting blood total cholesterol, fasting free fatty acids in the blood, total lipids in the liver, liver triglyceride and liver total cholesterol were measured by using those samples. […]

[7] = system: model mice with Type II diabetes; experiment: Measurement of lipids in the liver of model mice with Type II diabetes; type: in vivo, Male KK-Ay mice; details: KK-Ay mice
Experimental: as §4, §5
(c) 16 KK-Ay mice were divided into 2 groups based on their body weights. Feeds wherein 0 or 1.6% D,L pipecolic acid was added were provided to each group for 5 weeks. At the fifth week, they were fasted, and their blood was collected and their livers were extracted to measure their fasting blood triglyceride, fasting blood total cholesterol, fasting free fatty acids in the blood, total lipids in the liver, liver triglyceride and liver total cholesterol.
as §1
(c) Farming mice: 16 (2 experimental sections×8) male KK-Ay mice of 4 weeks old were purchased from Clea Japan, Inc. and each was separately farmed in an animal room in a light-dark cycle of 12 hours (7:00 to 19:00) at room temperature of 25° C. After naturalizing two weeks, they were divided into 2 groups based on their body weights, and the above feeds were provided to them for 5 weeks. Every Mondays, Wednesdays and Fridays during the period, their body weights and amounts of food ingested were measured, and the feeds were added. After 5 weeks passed, they were fasted for 17 hours, their blood was collected and their livers were extracted. The fasting blood triglyceride, fasting blood total cholesterol, fasting free fatty acids in the blood, total lipids in the liver, liver triglyceride and liver total cholesterol were measured by using those samples.
(e) Measurement of lipids in the liver: About 0.5 g of a liver sample is homogenized in 10 mL of chloroform/methanol (2:1) solution, and lipids are extracted overnight. […] 5 mL thereof is concentrated by drying with a centrifugal evaporator, and its weight measured becomes total lipids in the liver. […]

[8] = feed adding 0.4% for 4 weeks, glucose 2 g/kg oral
[9] = feed adding 1.6% for 5 weeks, average value

## O=C(O)C1CCCCN1 (centres unmarked) [D,L pipecolic acid]
[1]; feed adding 0.2% for 4 weeks, glucose 2 g/kg oral
  increase of the blood glucose after oral injection of glucose: inhibited
[1]; feed adding 0.2 or 0.4% for 4 weeks, any group and any time period after glucose
  blood insulin concentration: did not change
[1]; [8]
  blood glucose of 30 and 60 minutes after the administration: decreased
  increase of the blood glucose after oral injection of glucose: inhibited
[2]; after glucose 2 g/kg oral
  blood insulin concentration: decreased to around the same extent as that of the normal diet groups
[2]; glucose 2 g/kg oral
  increase of the blood glucose after giving glucose: hardly inhibited
[3]; eighth week
  increase of blood glucose in the oral glucose tolerance test: no strong effect of inhibiting the increase of the blood glucose was confirmed
[3]; second week, compared with additive-free group
  increase of blood glucose in the oral glucose tolerance test: inhibited
[3]; feed adding 0.8%, until the eighth week
  increase of the blood glucose after injection of glucose: effect of inhibiting the increase of the blood glucose after injection of glucose was seen
[4]
  decrease of the blood glucose after administering insulin: promoted
[5]
  weights of epididymal fats: decreased
  weights of perinephric fats: decreased
[6]
  decrease of blood triglyceride as compared with the control group: about 20%
  decrease of free fatty acids in the blood as compared with the control group: about 20%
[7]; feed adding 0 or 1.6% for 5 weeks
  total lipids in the liver: significantly correlate with the additive amount of pipecolic acid
[7]; [9]
  decrease of liver total cholesterol as compared with the control group: about 20%
  decrease of liver triglyceride as compared with the control group: about 20%
